From US8563706B2, “Efficient cell culture system for hepatitis C virus genotype 1A and 1B” (priority 2007, dated 2013)

Tests used:
[1] = test system: JFH1 cultures or cultures with genotype 1a (H77), 1b (Con1) or 2a (J6) JFH1-based recombinants; conditions: previous studies; cited from earlier work
[2] = test system: JFH1-based recombinants of genotypes 1a, 1b, 2a, 2b, and 6a; type: cell-based, hepatitis C virus
J6/JFH = conditions: previous studies; cited from earlier work

Molecule	production of infectious virus (in words) [1]	effect of treatment on infected cells and supernatant HCV RNA titers (in words) [2]	replication of J6/JFH (in words) (J6/JFH)	decrease in supernatant HCV RNA titers [2] [log]	decrease in the number of infected cells [2] [%]
NC12CC3CC(CC(C3)C1)C2 [amantadine]	did not decrease production of infectious virus	no apparent effect	–	–	–
interferon-α2b	–	–	decreased replication	~2	> 60
NC(=O)c1ncn([C@@H]2O[C@H](CO)[C@@H](O)[C@H]2O)n1 [ribavirin]	did not decrease production of infectious virus	no apparent effect	–	–	–
